These are literature values, as cited in PMC3433420 (PLoS ONE, 2012).

pKd: −log10 of the molar value. Read-outs that look alike come from different tables or passages of the source.

The term pKd denotes the negative decadic logarithm of the Kd, by convention in mol/L.

The data set addresses SH2 and PTB domains. Conditions: cited from earlier work. The text has this: Supplement pone.0044471.s022.xlsx, sheet "Most recent PM interactions" | column: Kd || Supplement pone.0044471.s022.xlsx, sheet "All original PM interactions" | column: Kd
Where [1] appears, read: protein ABL2, ref Jones et al. 2006 / Kaushansky et al. Mol Biosys 2008 / Kaushansky et al. Chem and Biol 2008.
Setting [2] is: protein BLK, ref Jones et al. 2006 / Kaushansky et al. Mol Biosys 2008 / Kaushansky et al. Chem and Biol 2008.
Where [3] appears, read: protein CRK, ref Jones et al. 2006 / Kaushansky et al. Mol Biosys 2008 / Kaushansky et al. Chem and Biol 2008.
Where [4] appears, read: protein CRKL, ref Jones et al. 2006 / Kaushansky et al. Mol Biosys 2008 / Kaushansky et al. Chem and Biol 2008.
[5] abbreviates: protein PIK3R1-N, ref Jones et al. 2006 / Kaushansky et al. Mol Biosys 2008 / Kaushansky et al. Chem and Biol 2008.
Setting [6] is: protein PIK3R1-NC, ref Jones et al. 2006 / Kaushansky et al. Mol Biosys 2008 / Kaushansky et al. Chem and Biol 2008.
Where [7] appears, read: protein PIK3R2-N, ref Jones et al. 2006 / Kaushansky et al. Mol Biosys 2008 / Kaushansky et al. Chem and Biol 2008.
[8] abbreviates: protein PIK3R3-NC, ref Jones et al. 2006 / Kaushansky et al. Mol Biosys 2008 / Kaushansky et al. Chem and Biol 2008.
[9] abbreviates: protein PLCG2-NC, ref Jones et al. 2006 / Kaushansky et al. Mol Biosys 2008 / Kaushansky et al. Chem and Biol 2008.
The mark [10] stands for this setting: protein RASA1-N, ref Jones et al. 2006 / Kaushansky et al. Mol Biosys 2008 / Kaushansky et al. Chem and Biol 2008.
Setting [11] is: protein RASA1-NC, ref Jones et al. 2006 / Kaushansky et al. Mol Biosys 2008 / Kaushansky et al. Chem and Biol 2008.
[12] abbreviates: protein SHC1-PTB, ref Jones et al. 2006 / Kaushansky et al. Mol Biosys 2008 / Kaushansky et al. Chem and Biol 2008.
The mark [13] stands for this setting: protein SHC3, ref Jones et al. 2006 / Kaushansky et al. Mol Biosys 2008 / Kaushansky et al. Chem and Biol 2008.
[14] abbreviates: protein SYK-NC, ref Jones et al. 2006 / Kaushansky et al. Mol Biosys 2008 / Kaushansky et al. Chem and Biol 2008.
The mark [15] stands for this setting: Protein ABL2, most recent PM interactions, ref Jones et al. 2006 / Kaushansky et al. Mol Biosys 2008 / Kaushansky et al. Chem and Biol 2008.
[16] abbreviates: Protein SHC1-PTB, most recent PM interactions, ref Jones et al. 2006 / Kaushansky et al. Mol Biosys 2008 / Kaushansky et al. Chem and Biol 2008.

Consider “ENAEpYLRVAPQSd [ErbB1 pY1197, N-terminally rhodamine-labeled 13-mer phosphopeptide]”, for which the pKd reads like this: under setting [1], 6.68; under setting [2], 6.30; under setting [3], 5.97; under setting [4], 5.87; (protein FGR, ref Jones et al. 2006 / Kaushansky et al. Mol Biosys 2008 / Kaushansky et al. Chem and Biol 2008) 6.21; (protein GRB2, ref Jones et al. 2006 / Kaushansky et al. Mol Biosys 2008 / Kaushansky et al. Chem and Biol 2008) 6.38. Besides, the negative logarithm of the Kd (pKd) is 6.30 (protein ITK, ref Jones et al. 2006 / Kaushansky et al. Mol Biosys 2008 / Kaushansky et al. Chem and Biol 2008); 6.77 (protein LYN, ref Jones et al. 2006 / Kaushansky et al. Mol Biosys 2008 / Kaushansky et al. Chem and Biol 2008); 6.30 under setting [5]; 6.30 under setting [6]; 6.30 under setting [7]; 6.09 under setting [8]. The pKd was 6.30 under setting [9]; 6.15 under setting [10]; 6.30 under setting [11]; 6.47 under setting [12]; 6.11 (protein SHC1, ref Jones et al. 2006 / Kaushansky et al. Mol Biosys 2008 / Kaushansky et al. Chem and Biol 2008); 5.99 under setting [13]. The pKd reads like this: (protein SRC, ref Jones et al. 2006 / Kaushansky et al. Mol Biosys 2008 / Kaushansky et al. Chem and Biol 2008) 6.42; (protein SYK-N, ref Jones et al. 2006 / Kaushansky et al. Mol Biosys 2008 / Kaushansky et al. Chem and Biol 2008) 6.54; under setting [14], 6.42; (protein TEC, ref Jones et al. 2006 / Kaushansky et al. Mol Biosys 2008 / Kaushansky et al. Chem and Biol 2008) 6.32; (protein YES1, ref Jones et al. 2006 / Kaushansky et al. Mol Biosys 2008 / Kaushansky et al. Chem and Biol 2008) 6.89.
In the case of “STQRpYSADPTVFd [ErbB4 pY1128, N-terminally rhodamine-labeled 13-mer phosphopeptide]”, the pKd (protein SRC, ref Kaushansky et al. Chem and Biol 2008) was 6.30.
As to “DADEpYLIPQQGFd [ErbB1 pY1016, N-terminally rhodamine-labeled 13-mer phosphopeptide]”, the pKd reads like this: under setting [1], 6.55; under setting [2], 6.18; under setting [3], 6.33; under setting [4], 6.00; (protein NCK1, ref Jones et al. 2006 / Kaushansky et al. Mol Biosys 2008 / Kaushansky et al. Chem and Biol 2008) 6.00; (protein NCK2, ref Jones et al. 2006 / Kaushansky et al. Mol Biosys 2008 / Kaushansky et al. Chem and Biol 2008) 5.70. The negative-log Kd (pKd) (protein PIK3R1-C, ref Jones et al. 2006 / Kaushansky et al. Mol Biosys 2008 / Kaushansky et al. Chem and Biol 2008) was 6.06; the negative logarithm of the Kd (pKd) under setting [5] is 6.19; the pKd under setting [6] is 6.52; the pKd under setting [7] was 6.37; the pKd (protein PIK3R2-NC, ref Jones et al. 2006 / Kaushansky et al. Mol Biosys 2008 / Kaushansky et al. Chem and Biol 2008) was 6.46; the negative logarithm of the Kd (pKd) (protein PIK3R3-C, ref Jones et al. 2006 / Kaushansky et al. Mol Biosys 2008 / Kaushansky et al. Chem and Biol 2008) is 6.72. For the same substance, the negative-log Kd (pKd) runs as follows: (protein PIK3R3-N, ref Jones et al. 2006 / Kaushansky et al. Mol Biosys 2008 / Kaushansky et al. Chem and Biol 2008) 6.33; under setting [8], 6.70; (protein PLCG1-C, ref Jones et al. 2006 / Kaushansky et al. Mol Biosys 2008 / Kaushansky et al. Chem and Biol 2008) 5.70; (protein PLCG1-NC, ref Jones et al. 2006 / Kaushansky et al. Mol Biosys 2008 / Kaushansky et al. Chem and Biol 2008) 6.10; under setting [9], 5.70; (protein PTPN11-N, ref Jones et al. 2006 / Kaushansky et al. Mol Biosys 2008 / Kaushansky et al. Chem and Biol 2008) 6.42. The pKd is, setting by setting: under setting [10], 6.11; under setting [11], 5.85; (protein SH2D3A, ref Jones et al. 2006 / Kaushansky et al. Mol Biosys 2008 / Kaushansky et al. Chem and Biol 2008) 5.70; (protein SH2D3C, ref Jones et al. 2006 / Kaushansky et al. Mol Biosys 2008 / Kaushansky et al. Chem and Biol 2008) 5.70; (protein SHB, ref Jones et al. 2006 / Kaushansky et al. Mol Biosys 2008 / Kaushansky et al. Chem and Biol 2008) 5.70; under setting [12], 6.20. The pKd (protein SHC2-PTB, ref Jones et al. 2006 / Kaushansky et al. Mol Biosys 2008 / Kaushansky et al. Chem and Biol 2008) is 6.18; the negative-log Kd (pKd) under setting [13] was 6.66; the pKd (protein SLA, ref Jones et al. 2006 / Kaushansky et al. Mol Biosys 2008 / Kaushansky et al. Chem and Biol 2008) was 5.70; the pKd (protein SYK-C, ref Jones et al. 2006 / Kaushansky et al. Mol Biosys 2008 / Kaushansky et al. Chem and Biol 2008) was 6.03; the pKd under setting [14] is 6.28; the negative logarithm of the Kd (pKd) (protein TENC1, ref Jones et al. 2006 / Kaushansky et al. Mol Biosys 2008 / Kaushansky et al. Chem and Biol 2008) is 5.70. Moreover, the negative logarithm of the Kd (pKd) by setting is: (protein TNS4, ref Jones et al. 2006 / Kaushansky et al. Mol Biosys 2008 / Kaushansky et al. Chem and Biol 2008) 6.04; (protein VAV1, ref Jones et al. 2006 / Kaushansky et al. Mol Biosys 2008 / Kaushansky et al. Chem and Biol 2008) 5.98; (protein VAV2, ref Jones et al. 2006 / Kaushansky et al. Mol Biosys 2008 / Kaushansky et al. Chem and Biol 2008) 5.70; (protein VAV3, ref Jones et al. 2006 / Kaushansky et al. Mol Biosys 2008 / Kaushansky et al. Chem and Biol 2008) 5.70.
As to KGSTAENAEpYLRVAPQSd [ErbB1 1197], the pKd runs as follows: under setting [15], 6.68; (Protein PIK3R3-NC, most recent PM interactions, ref Jones et al. 2006 / Kaushansky et al. Mol Biosys 2008 / Kaushansky et al. Chem and Biol 2008) 5.95; under setting [16], 6.49.
Take “EEKEpYHAEGGKVd [ErbB1 pY869, N-terminally rhodamine-labeled 13-mer phosphopeptide]”: the pKd reads like this: under setting [1], 5.70; under setting [2], 5.77.
On to PAGSVQNPVpYHNQPLNPd [ErbB1 1110], for which the negative-log Kd (pKd) was 6.28 (Protein ABL1, most recent PM interactions, ref Jones et al. 2006 / Kaushansky et al. Mol Biosys 2008 / Kaushansky et al. Chem and Biol 2008); 7.22 under setting [15]; 6.49 under setting [16].
As to LPPDDKQLLpYSEAKTPI [ErbB3 868], the pKd runs as follows: (Protein ABL2, most recent PM interactions, ref Jones et al. 2006 / Kaushansky et al. Chem and Biol 2008) 7.15; (Protein BCAR3, most recent PM interactions, ref Jones et al. 2006 / Kaushansky et al. Chem and Biol 2008) 5.75; (Protein CRKL, most recent PM interactions, ref Jones et al. 2006 / Kaushansky et al. Chem and Biol 2008) 5.75; (Protein RASA1-N, most recent PM interactions, ref Jones et al. 2006 / Kaushansky et al. Chem and Biol 2008) 6.02; (Protein SYK-NC, most recent PM interactions, ref Jones et al. 2006 / Kaushansky et al. Chem and Biol 2008) 6.04.
Consider “DEKEpYNADGGKMd [ErbB4 pY875, N-terminally rhodamine-labeled 13-mer phosphopeptide]”, for which the pKd (protein PLCG2-NC, ref Kaushansky et al. Chem and Biol 2008) was 5.94.
On to “ENPEpYLGLDVPVd [ErbB2 pY1248, N-terminally rhodamine-labeled 13-mer phosphopeptide]”, for which the pKd runs as follows: (Protein ABL2, original PM interactions, ref Jones et al. 2006 / Kaushansky et al. Chem and Biol 2008) 6.68; (Protein SHC1-PTB, original PM interactions, ref Jones et al. 2006 / Kaushansky et al. Chem and Biol 2008) 6.55.
